According to article PMC3693772, “Protein expression, biochemical pharmacology of signal transduction, and relation to intraocular pressure modulation by bradykinin B2 receptors in ciliary muscle” (Molecular Vision, 2013):
Where “and” joins values, the source holds several entries; their conditions need not be identical. Equal entries are not always repeated. Entries after “also recorded” stand apart in the source; their conditions may differ. Where two headings read alike, the source gives them in different places.

Key:
primary h-CM cells = format: cell-based, human
Description: (§4) Measurement of prostaglandins in human ciliary muscle and Chinese hamster ovary cells expressing B2 receptors
(§5) This involved stimulating h-CM cells and CHO-B2 cells with various concentrations of test peptides and measuring the release of various PGs in the extracellular medium. The concentration-dependent effects of these peptides on total PGs, and specifically PGE2, PGF2α, and PGD2 release, were studied. Cells were grown as a monolayer in a 24-well plate (precoated with fibronectin) to confluence and subsequently serum-starved overnight before the experiment. On the day of the experiment, just before the drug was added, the wells were aspirated completely, and 990 µl basal medium and 10 µl 100× series of concentrations of the different peptide agonists were added to achieve the desired final concentrations of each compound (e.g., 0.1 nM to 10 µM). […] At the end of the incubation period, the cellular supernatants were collected and stored at −80 °C or used immediately to determine the PG content. Cell supernatants were tested for total PG levels and sub-species of PGs (PGE2, PGF2α, and PGD2) using specific competitive enzyme immunoassays (Cayman Chemical Co., Ann Arbor, MI) as directed in the manufacturer’s recommended protocols using the supplied standards and reagents. The limits of detection for various PGs were as follows: total PGs=29 pg/ml; PGE2=15 pg/ml; PGF2α=9 pg/ml; PGD2=200 pg/ml.

B2 subtype = test system: B2 subtype; set-up: method as in PMID 1313585; details: ref [1]; cited from earlier work
[1] = test system: ERK1/2 phosphorylation, CHO-B2 cells; assay: ERK1/2 phosphorylation in CHO-B2 cells (HTRF); format: cell-based, Chinese hamster ovary cells, human cloned B2 receptor; details: high basal background
cynomolgus monkey eyes [2] = assay: IOP after topical ocular dosing in cynomolgus monkeys; format: in vivo; details: for IOP change (% of control) / IOP: 100 µg topical
Description: Intraocular pressure measurements
To extend our in vitro observations of the high density of B2-receptor protein in human and cynomolgus monkey ciliary muscle and non-pigmented ciliary epithelium, we studied the effects of topically administered BK (100 µg total dose in a sterile vehicle) on IOP in normotensive and TM-ablated hypertensive eyes of these animals. […] However, since we could not subject the monkeys to additional studies involving BK delivery to the eye interior, it was decided that intravitreal (ivt) injection of BK into pigmented Dutch-Belt rabbits would be worth pursuing. Thus, after light corneal anesthesia with 0.1% proparacaine, basal IOPs were determined in up to 10 Dutch-Belt rabbits using an Alcon Pneumotonometer (Alcon Laboratories Inc., Fort Worth, TX). After this time, 50 µg of BK (B2 agonist) or Des-Arg^9-BK (B1 agonist) in 20 µl of sterile basal salt solution (BSS plus), or just BSS plus vehicle, was injected ivt into one eye of each rabbit and the IOP determined at various times thereafter. Authors confirm adherence to the ARVO Statement for Animals in Ophthalmic and Vision Research, with all animal studies conducted according the guidelines for Animal Care and Use at Alcon Research Ltd.

CHO-B2 cells = format: cell-based, Chinese hamster ovary cells, human cloned B2 receptor; details: 1 h at 37 °C; enzyme immunoassay; mean ± SEM, 3 to 6 experiments; read-out: PGF2α production in CHO-B2 cells (EC50)
Description: as §4, §5

human TM cells = details: ref [33]; cited from earlier work
[3] = test system: certain endothelial and neuronal cells; details: ref [3],[28]; cited from earlier work
pro-MMPs, h-CM cells = assay: pro-MMP release from h-CM cells (several pro-MMPs stated together); format: cell-based, human; details: BK 0.1–1 µM at 24 h
Description: (§1) Measurement of extracellular signal-regulated kinase-1/2 phosphorylation and pro-matrix metalloproteinase production
(§2) The release of pro-MMP-1/2/3 in the extracellular medium of h-CM cells exposed to kinin’s, for 24 h at 37 °C [29, 30] was studied next. Thus, h-CM cells isolated from multiple human donor eyes were cultured as described above and then serum-starved for 24 h prior to the addition of any test compound. Cells were incubated with the vehicle or test compound for 24 hours at 37 °C after which the medium was collected and concentrated ten-fold using Centricon concentrators (Millipore Corp., Bellireca, MA). Equal volumes of this concentrate were loaded on 10% SDS-polyacrylamide gels (SDS-PAGE) and the proteins separated and transferred to nitrocellulose membranes. The membranes were then blocked with 5% non-fat dry milk (Bio-Rad Laboratories, Hercules, CA) followed by incubation with antibodies to pro-MMP-1, pro-MMP-2, or pro-MMP-3 for 12 hours at 4 °C with gentle shaking. After washing, these membranes were incubated with appropriate secondary antibodies (HRP-conjugated; dilution 1:3000) for 1 hour at 20 °C. […] For chemiluminescent detection, the membranes were treated with enhanced chemiluminescent reagent (Amersham Pharmacia, Piscataway, NJ) and the signal was quantified using a Bio-Rad Versadoc imaging system (Bio-Rad Laboratories, Hercules, CA).

h-CM cells [4] = assay: Nitric oxide production in h-CM cells; format: cell-based, human; details: BK 0.1 and 1 µM; data not shown
Excerpt: Measurement of nitric oxide production
In certain cell types, BK elevates intracellular levels of nitric oxide (NO), which in turn causes the generation of cGMP via the soluble guanylate cyclase in the cell cytosol. In the present studies, we determined whether the B2 receptors in h-CM cells were coupled to NO production using a specific kit (Promega Corp., Madison, WI) and according to the manufacturer’s instructions.

pro-MMP-1, h-CM cells = assay: pro-MMP-1 release from h-CM cells; format: cell-based, human; details: BK 10 nM to 1 µM, 24 h at 37 °C; n=6
Description: as §1, §2

h-CM cells [5] = format: cell-based, human; details: 1 h at 37 °C; enzyme immunoassay; mean ± SEM, 3 to 6 experiments; read-out: PGF2α production in h-CM cells (EC50)
Description: as §4, §5

albino rabbits = details: topical dosing, ref [8]; cited from earlier work
Excerpt: (§3) Despite the presence of the kallikrein/kinin enzyme and receptor system in the h-CM tissue and cells, with B2-receptor immunoreactivity also found in the cynomolgus monkey CM (Figure 2B), the physiologic roles of BK and its receptors in this tissue and cells remain to be elucidated. Indeed, there are conflicting reports in the literature regarding the functions and involvement of BK in modulating IOP in various animal models.

cynomolgus monkey eyes [6] = details: intracameral, ref [12], cited from earlier work
Excerpt: as §3

[7] = test system: isolated perfused bovine eyes; details: ref [16]; cited from earlier work
Excerpt: as §3

[8] = test system: isolated perfused human and bovine anterior eye segments; details: ref [15]; cited from earlier work
Excerpt: as §3

[9] = cited from earlier work
Excerpt: as §3

[10] = normal pressure eyes, 1 h, mean ± SEM, twelve monkeys
[11] = normal pressure eyes, 3 h, mean ± SEM, twelve monkeys
[12] = normal pressure eyes, 6 h, mean ± SEM, twelve monkeys
[13] = normal pressure eyes, 24 h, mean ± SEM, twelve monkeys
[14] = ocular hypertensive eyes, 1 h, mean ± SEM, twelve monkeys
[15] = ocular hypertensive eyes, 3 h, mean ± SEM, twelve monkeys
[16] = ocular hypertensive eyes, 6 h, mean ± SEM, twelve monkeys
[17] = ocular hypertensive eyes, 24 h, mean ± SEM, twelve monkeys
[18] = intracameral injection, ref [10],[14]

Substance: H-RPPGFSPFR-OH [BK]
- EC50 (primary h-CM cells; 1 h at 37 °C, enzyme immunoassay, mean ± SEM, 3 to 6 experiments, read-out: Total PGs production in h-CM cells (EC50)): 8.6 ± 2.4 nM
- BK-induced total PGs production/secretion, h-CM cells (primary h-CM cells; BK 100 nM (0.1 µM) to 10 µM, n=8): 393.3 ± 24.2 pg/mL and 393.3 pg/mL
- Total PG secretion above basal levels (primary h-CM cells; BK 1 µM, Figure 6A, single experiment): substantially increased the PGs secreted above the basal levels
- Affinity for B2 subtype (B2 subtype): high affinity
- ERK1/2 phosphorylation response in CHO-B2 cells [1]: did not obtain a meaningful response
- IOP effect of topical BK (cynomolgus monkey eyes [2]; 100 µg topical ocular, conscious cynomolgus monkeys, normotensive and hypertensive eyes): failed to alter IOP; also recorded: no remarkable changes in IOP; also recorded: no alteration in IOP; also recorded: failed to modulate IOP
- IOP change (% of control) (cynomolgus monkey eyes [2]; normal pressure eyes, 0 h (baseline)): 0%
- IOP (cynomolgus monkey eyes [2]; normal pressure eyes, 0 h (baseline), mean ± SEM, twelve monkeys): 27.1±1.0 mmHg
- IOP (cynomolgus monkey eyes [2]; [10]): 27.1±1.1 mmHg
- IOP change (% of control) (cynomolgus monkey eyes [2]; [10]): 0.2±2.5%
- IOP (cynomolgus monkey eyes [2]; [11]): 26.6±0.7 mmHg
- IOP change (% of control) (cynomolgus monkey eyes [2]; [11]): −1.0±2.9%
- IOP (cynomolgus monkey eyes [2]; [12]): 27.2±1.1 mmHg
- IOP change (% of control) (cynomolgus monkey eyes [2]; [12]): 0.8±2.3%
- IOP (cynomolgus monkey eyes [2]; [13]): 27.8±1.4 mmHg
- IOP change (% of control) (cynomolgus monkey eyes [2]; [13]): 2.4±3.3%
- IOP change (% of control) (cynomolgus monkey eyes [2]; ocular hypertensive eyes, 0 h (baseline)): 0%
- IOP (cynomolgus monkey eyes [2]; ocular hypertensive eyes, 0 h (baseline), mean ± SEM, twelve monkeys): 36.8±1.6 mmHg
- IOP (cynomolgus monkey eyes [2]; [14]): 35.9±1.8 mmHg
- IOP change (% of control) (cynomolgus monkey eyes [2]; [14]): −2.6±1.5%
- IOP (cynomolgus monkey eyes [2]; [15]): 35.7±1.6 mmHg
- IOP change (% of control) (cynomolgus monkey eyes [2]; [15]): −2.7±3.3%
- IOP (cynomolgus monkey eyes [2]; [16]): 36.6±1.7 mmHg
- IOP change (% of control) (cynomolgus monkey eyes [2]; [16]): −0.4±3.0%
- IOP (cynomolgus monkey eyes [2]; [17]): 35.3±1.6 mmHg
- IOP change (% of control) (cynomolgus monkey eyes [2]; [17]): −4.1±2.3%
- EC50 (CHO-B2 cells): 0.0321 ± 0.0122 nM
- Production of PGs in human TM cells (human TM cells): produced various PGs
- Production of NO and cGMP [3]: can elicit production of NO and cGMP
- Increase in promatrix metalloproteinases-1–3 release (pro-MMPs, h-CM cells): 1.4–3.1 fold
- Effect on NO levels (h-CM cells [4]): failed to have any effect on NO levels; also recorded: failed to do so in h-CM cells
- pro-MMP-1 release vs basal level (pro-MMP-1, h-CM cells): 3.12±0.46 fold
- EC50 (h-CM cells [5]): 15.9 ± 9.2 nM
- IOP effect (albino rabbits): lowered IOP
- Aqueous humor outflow (cynomolgus monkey eyes [6]; no ciliary muscle retrodisplacement): no effect on aqueous humor outflow
- Aqueous humor outflow (cynomolgus monkey eyes [6]; with ciliary muscle retrodisplacement): decreased outflow
- Outflow [7]: apparent increase in outflow
- Outflow facility [8]: decreased outflow facility
- IOP effect [9, 18]: raised IOP
- Pupil effect [9, 18]: caused intense miosis
- IOP effect ([9]; intravenous infusion, ref [9]): lowered IOP
- Aqueous humor inflow and outflow ([9]; ref [11]): increased aqueous humor inflow and outflow
